Data as given in PMC3133470, “Activity of Cathelicidin Peptides against Simkania negevensis” (International Journal of Peptides, 2011).
Where no end group is shown, it is not given here.

Tests used:
[1] = system: Chlamydophila felis; conditions: previous study of the authors; cited from earlier work
Protocol: (§1) With regard to the other chlamydial species tested, only Chlamydophila pneumoniae and Chlamydophila felis were sensitive to 10 μg/mL of SMAP-29 and 80 μg/mL of SMAP-29/Bac7, respectively.

[2] = system: Simkania negevensis reference strain Z (ATCC VR-1471); test: Inhibition of Simkania negevensis infectivity (reduction of inclusions) after pre-incubation of elementary bodies with peptide; type: cell-based; conditions: purified EBs incubated with peptide 2 h at room temperature in PBS/SPG pH 7.4; tenfold dilutions 100 to 0.01 μg/mL; LLC-MK2 cells, 72 h at 35°C; inclusions by immunofluorescence; untreated control mean 74 IFU/mL; means of three experiments in triplicate
Protocol: The cathelicidin peptides—PG-1 from pig, Bac7 (1–35) from cattle, SMAP-29 from sheep, LL-37 from human, BMAP-27, and BMAP-28 from cattle—were chemically synthesized, purified, characterized, and provided as lyophilized peptide, as previously reported. The reference strain Z of S. negevensis (American Type Culture Collection VR-1471) was grown in LLC-MK2 cells in 6-large well plates and elementary bodies (EBs) were purified by use of sucrose gradients, resuspended in sucrose-phosphate-glutamic acid buffer (SPG) pH 7.4 (75 g sucrose, 87 mL 0.2 M Na2HPO4, 13 mL 0.2 M NaH2PO4, 0.72 g L-glutamic acid), and frozen in aliquots at −80°C.
Stock solutions of each peptide at 1 g/liter were prepared in phosphate-buffered saline (PBS), pH 7.4, and stored frozen in 20-μL aliquots at −80°C until used. To determine the lowest peptide concentration required to achieve ≥50% reduction of inclusions with respect to untreated control, the various peptides were diluted tenfold from 200 to 0.02 μg/mL, in a volume of 100 μL with PBS in polypropylene tubes. An equal volume of 5 × 10^5 inclusion-forming units (IFU)/mL of purified S. negevensis EBs in SPG medium was then added, so obtaining a final cathelicidin concentration ranging from 100 to 0.01 μg/mL in a mixture of PBS and SPG at a final pH 7.4. EBs untreated with cathelicidins were used as a control. After incubation at room temperature for 2 h, a 200 μL aliquot was added to 800 μL chlamydial growth medium and inoculated onto LLC-MK2 cells grown in 24-well plates in a 5% CO2 atmosphere. After centrifugation at 800 × g for 1 h at 33°C and incubation at 35°C for 72 h, the cultures were fixed and stained for the presence of inclusions by immunofluorescence using an in-house rabbit polyclonal hyperimmune serum raised against S. negevensis. The number of IFU per coverslip was counted in 40 microscopic fields using a ZEISS UV microscope at a magnification of ×200.
All tests were performed in triplicate and in three independent experiments.

[3] = system: Chlamydia trachomatis strains; conditions: previous study of the authors; cited from earlier work
Protocol: as §1

## Bac7: cathelicidin peptide Bac7 (1–35) from cattle, chemically synthesized (RRIRPRPPRLPRPRPRPLPFPRPGPRPIPRPLPFP; Bactenecin 7; UniProt P19661 131-165, looked up, fragment)
[1]
  concentration to which Chlamydophila felis was sensitive: 80 µg/mL
[2]
  lowest peptide concentration required to achieve ≥50% reduction of inclusions with respect to untreated control: 0.1 µg/mL

## LL-37
[3]
  concentration with inhibitory effect on Chlamydia trachomatis strains: > 80 µg/mL
[2]
  lowest peptide concentration required to achieve ≥50% reduction of inclusions with respect to untreated control: > 100 µg/mL

## PG-1: cathelicidin peptide from pig, chemically synthesized; native protegrin-1 has two intramolecular disulfide bonds (RGGRLCYCRRRFCVCVGR; not fully specified (bridges); ends and bridges not checked; also: native protegrin-1 has two intramolecular disulfides, pairing not given here; UniProt P32194 131-148, looked up)
[2]
  lowest peptide concentration required to achieve ≥50% reduction of inclusions with respect to untreated control: 1 µg/mL
